Assay results reported in publication PMC7144376, “Antiviral Effects of Novel 2-Benzoxyl-Phenylpyridine Derivatives” (Molecules, 2020).
Where two headings read alike, the source gives them in different places.

Tests used:
CVB3 = assay: Time of (drug) addition experiment; type: cell-based, Coxsackievirus B3; details: compound present −1–10, 0–10 or 2–10 h; yield at 12 h pi; 120 μM W-9, 160 μM W-13, W-15, ribavirin
Description: To further elucidate the mechanisms underlying the activities of W9, W13, and W15 against CVB3 propagation in cells, we conducted a time-of-addition experiment. Briefly, 120 μM W-9, or 160 μM W-13, W-15 or ribavirin, were added to Hep-2 cells at different time periods following CVB3 infection and progeny virus yield was determined at 12 h post-infection (pi). […] In contrast, when compounds were added during the 4–10 h stage after viral infection, production of viral progeny increased somewhat, however, compared with the virus control group, the inhibition effect was still clear. Drug treatments during other periods following CVB3 infection led to a gradual increase in viral yields, reflecting a loss of antiviral effects.
Figure 4 Time-of-addition assay. 120 μM W-9, or 160 μM W-13, W-15, or ribavirin, were added to Hep-2 cells for different time periods after CVB3 infection. Progeny virus yield was determined at 12 h post-infection ((−1)–0 h, viral infection period; 0–10 h, period of virus proliferation in cells). Values are presented as means ± SDs. * p < 0.05; ** p < 0.01, compared with the virus control group.
Hep-2 cells were infected with 100 TCID50 of CVB3 and then 120 μM W-9, 160 μM W-13, 160 μM W-15, or 160 μM ribavirin were added for different time periods (−1–0, 0–10, 2–10, 4–10, 6–10, 8–10, or −1–10 h pi, where –1–0 h is the viral infection period and 0–10 h is the period of virus proliferation in the cells). Cells and culture supernatants were harvested at 12 h pi and subjected to three freeze-thaw cycles, after which virus titers were determined by the Reed–Muench method.

ADV7 [1] = assay: ADV7 progeny virus yield in HeLa cells (TCID50 titration); type: cell-based, adenovirus type 7; details: 36 h, 120 μM W-9, 160 μM W-13, 160 μM W-15, 160 μM ribavirin
Description: Based on their antiviral activities and therapeutic selectivity indices, the effects on virus progeny yields of compounds W9, W13, and W15 were further investigated, using ribavirin as a positive control drug. To this end, confluent monolayers of Hep-2 or HeLa cells in 96-well plates were infected with 100 × median tissue culture infective dose (TCID50) of CVB3 or ADV7, then treated with 120 μM W-9, 160 μM W-13, 160 μM W-15, or 160 μM ribavirin. After 36 h, culture media and cell lysates were collected, following freeze-thaw cycles, and then subjected to virus titration.
Figure 2 The effects of W9, W13, and W15 on progeny virus production. Hep-2 cells infected with 100 TCID50 of CVB3 (a), or HeLa cells infected with 100 TCID50 of ADV7(b), were incubated in the absence (virus control) or presence of 120 μM W-9, 160 μM W-13, 160 μM W-15, or 160 μM ribavirin for 36 h, and the culture media and cell lysates then harvested for virus titration. Viral titers are presented as Log10 TCID50/mL. * p < 0.05; ** p < 0.01, compared with the virus control group.
CVB3 or ADV7 suspensions, serially diluted 10-fold with DMEM containing 2% FBS (DMEM maintenance medium, MM), were inoculated to Hep-2 or HeLa cells in 96-well plates. After 1.5 h incubation at 37 °C in 5% CO2, unbound virus was washed out and the MM was added to the cells. After 2 days, infected cells were monitored for CPEs and virus titers were calculated using the Reed–Muench method.

ADV7 [2] = assay: Inhibition of ADV7-induced cytopathic effects in HeLa cells (MTT); type: cell-based, adenovirus type 7; details: for EC50 / inhibition at 160 µM: Human mastadenovirus B; for EC50: 100 TCID50 ADV7, 48 h, MTT, read-out: EC50 (50% protection from virus-induced cytopathogenicity), ADV7; for protection against ADV7-induced CPEs (microscopy): 120 μM W-9, 160 μM W-13, 160 μM W-15; for inhibition at 160 µM: read-out: inhibition of ADV7 infections
Description: Figure 1 Antiviral activities of novel 2-benzoxyl-phenylpyridine derivatives against CVB3 and ADV7. […] Hep-2 or HeLa cells were infected with 100 TCID50 of CVB3 or ADV7 for 1.5 h at 37 °C. Then, the inocula were aspirated and the cells were incubated with various concentrations of test compounds for 48 h. Cell viability was determined using the MTT assay. (b) Images showing the morphology of Hep-2 and HeLa cells treated with 120 μM W-9, 160 μM W-13, or 160 μM W-15 (magnification, 20×).
The antiviral activities of compounds against CVB3 and ADV7 were determined by measuring their inhibition of virus-induced CPEs in acutely infected Hep-2 and HeLa cells, respectively. Confluent cell monolayers in 96-well plates were infected with 100 TCID50 of CVB3 or ADV7 for 1.5 h at 37 °C, inocula were aspirated, and the cells then were incubated with various concentrations of compounds at 37 °C, 5% CO2, for 48 h. CPEs were observed by microscopy and the viability of cells was determined using MTT assays. The concentrations of test compounds required to achieve 50% protection from virus-induced cytopathogenicity (EC50 values) were determined. Adverse effects of tested compounds on host cells were also assessed using the MTT method after exposing uninfected cells to various concentrations of test compounds for 48 h at 37 °C. The CC50 values of compounds were calculated using SPSS software and selectivity indices were the ratio of CC50:EC50. Each experiment was performed in triplicate and at least three times, independently.

Row | SMILES | progeny virus titer in time-of-addition assay (CVB3) | reduction in ADV7 virus progeny titer relative to untreated control (ADV7 [1]) | SI (CC50/EC50), ADV7 (ADV7 [2]) | maximum inhibition of ADV7 (ADV7 [2]) [%] | EC50 (ADV7 [2]) [µM] | inhibitory activity against ADV7 infection (in words) (ADV7 [2]) | protection against ADV7-induced CPEs (microscopy) (ADV7 [2]) | inhibition at 160 µM (ADV7 [2]) [%] | SI (CC50/EC50), ADV7 (ADV7 [2]; listed as W-13)
1 | NC(=O)c1ncn([C@@H]2O[C@H](CO)[C@@H](O)[C@H]2O)n1 [Ribavirin, reference compound] | very similar effects | ~1.7 log | 7.1 | 72.4 | 114 |  |  |  | 
2 | O=C(Oc1cc(Cl)ccc1-c1ccccn1)c1ccccc1 [W9] | progeny virus titers were reduced | approximately 2.0 log | 9.8 |  | 27.1 ± 9 | significant inhibitory activities | almost complete protection | 81.4 | 
3 | Cc1ccc(OC(=O)C(C)(C)C)c(-c2ccccn2)c1 [W13] | progeny virus titers were reduced | approximately 2.0 log | >10 |  | 36.4 ± 16.4 | significant inhibitory activities | almost complete protection | 83.9 | > 10
4 | CC(=O)Oc1ccc(-c2ccccn2)c(OC(=O)c2ccccc2)c1 [W15] | progeny virus titers were reduced | approximately 2.0 log | 12.2 |  | 65.2 ± 21.6 | significant inhibitory activities | almost complete protection | 89.4 | 
